Assay results: ChEMBL document CHEMBL5113368, “Meroterpenoids produced by fungi: Occurrence, structural diversity, biological activities, and their molecular targets” (Eur J Med Chem, 2021)

What was measured:
[1] = Inhibition of Saccharomyces cerevisiae alpha-glucosidase using p-nitrophenyl-alpha-D -glucopyranoside as substrate pre-incubated for 10 mins followed by substrate addition measured after 15 mins by absorbance based analysis
[2] = target: T1, Tyrosine-protein phosphatase non-receptor type 1 (Homo sapiens, UniProt P18031); experiment: Inhibition of PTP1B (unknown origin) using pNPP as substrate by spectrophotometer analysis
T1 sequence (P18031 whole entry): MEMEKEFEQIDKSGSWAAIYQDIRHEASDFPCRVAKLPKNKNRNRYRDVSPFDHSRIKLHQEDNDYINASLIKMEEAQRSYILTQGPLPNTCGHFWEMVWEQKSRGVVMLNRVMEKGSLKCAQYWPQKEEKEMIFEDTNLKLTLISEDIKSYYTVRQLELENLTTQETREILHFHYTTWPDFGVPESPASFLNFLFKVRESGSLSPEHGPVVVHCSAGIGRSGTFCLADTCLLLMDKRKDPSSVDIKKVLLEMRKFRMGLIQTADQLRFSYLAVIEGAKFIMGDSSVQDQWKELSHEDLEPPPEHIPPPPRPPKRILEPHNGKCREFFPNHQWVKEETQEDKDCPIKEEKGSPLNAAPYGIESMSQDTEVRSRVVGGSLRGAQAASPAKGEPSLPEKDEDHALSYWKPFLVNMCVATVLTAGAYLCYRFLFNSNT

Staphylococcus aureus = experiment: Antibacterial activity against Staphylococcus aureus assessed as bacterial growth inhibition; assay type: functional, organism-based
K562 = experiment: Cytotoxicity against human K562 cells assessed as cell growth inhibition by CCK-8 method; assay type: functional, cell-based
Acetylcholinesterase [3] = target: T2, Acetylcholinesterase (Homo sapiens, UniProt P22303); experiment: Inhibition of human erythrocyte AChE using acetylthiocholine iodide as substrate incubated for 20 mins by DTNB reagent based spectrophotometric method
T2 sequence (P22303 whole entry): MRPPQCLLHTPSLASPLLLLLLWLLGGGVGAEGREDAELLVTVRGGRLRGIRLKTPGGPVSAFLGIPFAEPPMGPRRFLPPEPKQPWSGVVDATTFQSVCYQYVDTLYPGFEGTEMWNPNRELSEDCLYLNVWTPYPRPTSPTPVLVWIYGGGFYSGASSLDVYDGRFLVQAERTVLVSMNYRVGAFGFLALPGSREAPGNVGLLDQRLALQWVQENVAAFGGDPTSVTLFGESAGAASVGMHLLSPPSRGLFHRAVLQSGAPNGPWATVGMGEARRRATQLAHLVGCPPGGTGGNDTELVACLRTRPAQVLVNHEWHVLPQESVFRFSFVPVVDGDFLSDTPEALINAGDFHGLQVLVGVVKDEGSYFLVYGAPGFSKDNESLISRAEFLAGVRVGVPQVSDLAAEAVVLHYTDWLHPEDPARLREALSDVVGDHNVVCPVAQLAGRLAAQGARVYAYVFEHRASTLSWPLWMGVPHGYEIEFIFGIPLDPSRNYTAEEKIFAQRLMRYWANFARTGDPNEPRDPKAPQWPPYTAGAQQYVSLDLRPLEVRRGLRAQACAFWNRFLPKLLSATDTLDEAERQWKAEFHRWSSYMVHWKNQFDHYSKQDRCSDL

[4] = target: T3, Prostaglandin G/H synthase 2 (Homo sapiens, UniProt P35354); experiment: Inhibition of COX-2 (unknown origin) by fluorescent inhibitor screening assay
T3 sequence (P35354 whole entry): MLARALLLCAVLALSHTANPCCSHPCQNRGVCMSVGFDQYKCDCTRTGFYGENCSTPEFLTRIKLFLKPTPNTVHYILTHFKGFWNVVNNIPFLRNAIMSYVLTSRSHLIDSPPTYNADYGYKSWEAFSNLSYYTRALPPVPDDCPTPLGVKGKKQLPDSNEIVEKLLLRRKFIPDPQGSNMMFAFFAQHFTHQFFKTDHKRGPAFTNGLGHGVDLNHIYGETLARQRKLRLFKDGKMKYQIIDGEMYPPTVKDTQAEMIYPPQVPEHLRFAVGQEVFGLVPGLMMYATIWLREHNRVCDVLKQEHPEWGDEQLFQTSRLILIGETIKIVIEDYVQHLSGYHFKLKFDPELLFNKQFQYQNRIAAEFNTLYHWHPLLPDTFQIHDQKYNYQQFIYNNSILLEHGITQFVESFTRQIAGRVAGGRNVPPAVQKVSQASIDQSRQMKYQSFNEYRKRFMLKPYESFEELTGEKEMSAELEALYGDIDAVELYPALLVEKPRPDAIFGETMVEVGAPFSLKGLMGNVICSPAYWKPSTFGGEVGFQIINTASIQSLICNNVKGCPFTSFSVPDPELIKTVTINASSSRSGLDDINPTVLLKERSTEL

[5] = target: T3, Prostaglandin G/H synthase 2; experiment: Inhibition of COX-2 (unknown origin)
[6] = target: T4, Tyrosine-protein kinase JAK3 (Homo sapiens, UniProt P52333); experiment: Inhibition of JAK3 (unknown origin) by FRET-based Z'-Lyte assay
T4 sequence (P52333 whole entry): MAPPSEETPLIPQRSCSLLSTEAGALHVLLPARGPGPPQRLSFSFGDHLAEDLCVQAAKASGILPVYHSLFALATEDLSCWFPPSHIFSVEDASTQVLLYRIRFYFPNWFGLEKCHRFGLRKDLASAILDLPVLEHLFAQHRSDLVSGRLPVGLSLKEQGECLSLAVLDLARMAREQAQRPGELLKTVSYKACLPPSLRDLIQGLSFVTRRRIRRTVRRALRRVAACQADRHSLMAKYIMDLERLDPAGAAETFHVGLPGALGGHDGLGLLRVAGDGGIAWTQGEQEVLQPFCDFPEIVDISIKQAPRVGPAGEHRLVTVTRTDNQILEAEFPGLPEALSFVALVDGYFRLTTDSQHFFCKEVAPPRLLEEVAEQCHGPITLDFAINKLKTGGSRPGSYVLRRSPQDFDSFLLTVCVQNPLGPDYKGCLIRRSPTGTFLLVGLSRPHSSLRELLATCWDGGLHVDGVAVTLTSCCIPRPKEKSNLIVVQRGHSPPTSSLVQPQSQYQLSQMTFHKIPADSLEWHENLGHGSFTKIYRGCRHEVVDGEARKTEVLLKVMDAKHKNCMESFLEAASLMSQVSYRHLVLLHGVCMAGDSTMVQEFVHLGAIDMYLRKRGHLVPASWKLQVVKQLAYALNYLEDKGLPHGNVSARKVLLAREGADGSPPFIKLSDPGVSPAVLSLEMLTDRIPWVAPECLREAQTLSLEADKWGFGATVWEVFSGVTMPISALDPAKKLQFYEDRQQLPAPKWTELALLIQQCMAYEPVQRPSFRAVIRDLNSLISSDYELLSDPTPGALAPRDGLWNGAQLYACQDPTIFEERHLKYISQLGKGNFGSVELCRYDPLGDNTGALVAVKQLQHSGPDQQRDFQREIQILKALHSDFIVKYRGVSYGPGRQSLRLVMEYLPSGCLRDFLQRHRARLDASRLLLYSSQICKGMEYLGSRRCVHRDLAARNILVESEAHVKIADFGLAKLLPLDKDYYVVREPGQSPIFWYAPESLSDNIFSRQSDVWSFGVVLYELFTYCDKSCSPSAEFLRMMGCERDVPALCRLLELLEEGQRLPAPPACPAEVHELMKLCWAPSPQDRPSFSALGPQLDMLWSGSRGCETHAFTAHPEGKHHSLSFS

RAW264.7 = experiment: Anti-inflammatory activity in mouse RAW264.7 cells assessed as inhibition of NO production; assay type: functional, cell-based
Acetylcholinesterase [7] = target: T2, Acetylcholinesterase; experiment: Inhibition of AChE (unknown origin)
NCI-H187 = experiment: Cytotoxicity against human NCI-H187 cells assessed as cell growth inhibition; assay type: functional, cell-based
KB = experiment: Cytotoxicity against human KB cells assessed as cell growth inhibition; assay type: functional, cell-based
[8] = target: T5, Pancreatic triacylglycerol lipase (Sus scrofa, UniProt P00591); experiment: Inhibition of porcine pancreatic lipase using p-Nitrophenyl butyrate substrate incubated for 15 mins by spectrophotometer analysis
T5 sequence (P00591 whole entry): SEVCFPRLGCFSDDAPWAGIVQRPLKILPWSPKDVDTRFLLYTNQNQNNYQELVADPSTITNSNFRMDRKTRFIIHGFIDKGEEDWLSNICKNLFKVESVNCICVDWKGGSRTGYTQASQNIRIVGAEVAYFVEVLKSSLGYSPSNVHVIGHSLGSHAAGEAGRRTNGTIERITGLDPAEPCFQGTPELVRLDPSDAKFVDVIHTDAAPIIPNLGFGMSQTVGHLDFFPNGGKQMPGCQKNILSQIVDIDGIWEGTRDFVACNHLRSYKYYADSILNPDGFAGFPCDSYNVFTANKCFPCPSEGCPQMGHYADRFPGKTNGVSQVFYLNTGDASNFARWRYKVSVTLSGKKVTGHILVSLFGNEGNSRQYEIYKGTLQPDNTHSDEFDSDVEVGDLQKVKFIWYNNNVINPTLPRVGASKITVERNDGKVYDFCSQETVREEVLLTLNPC

[9] = target: Epithelial discoidin domain-containing receptor 1 (Homo sapiens, UniProt Q08345); experiment: Inhibition of DDR1 (unknown origin) by lanthascreen eu kinase activity assay
Sequence of Epithelial discoidin domain-containing receptor 1 (Q08345 whole entry, the tested form may be a part): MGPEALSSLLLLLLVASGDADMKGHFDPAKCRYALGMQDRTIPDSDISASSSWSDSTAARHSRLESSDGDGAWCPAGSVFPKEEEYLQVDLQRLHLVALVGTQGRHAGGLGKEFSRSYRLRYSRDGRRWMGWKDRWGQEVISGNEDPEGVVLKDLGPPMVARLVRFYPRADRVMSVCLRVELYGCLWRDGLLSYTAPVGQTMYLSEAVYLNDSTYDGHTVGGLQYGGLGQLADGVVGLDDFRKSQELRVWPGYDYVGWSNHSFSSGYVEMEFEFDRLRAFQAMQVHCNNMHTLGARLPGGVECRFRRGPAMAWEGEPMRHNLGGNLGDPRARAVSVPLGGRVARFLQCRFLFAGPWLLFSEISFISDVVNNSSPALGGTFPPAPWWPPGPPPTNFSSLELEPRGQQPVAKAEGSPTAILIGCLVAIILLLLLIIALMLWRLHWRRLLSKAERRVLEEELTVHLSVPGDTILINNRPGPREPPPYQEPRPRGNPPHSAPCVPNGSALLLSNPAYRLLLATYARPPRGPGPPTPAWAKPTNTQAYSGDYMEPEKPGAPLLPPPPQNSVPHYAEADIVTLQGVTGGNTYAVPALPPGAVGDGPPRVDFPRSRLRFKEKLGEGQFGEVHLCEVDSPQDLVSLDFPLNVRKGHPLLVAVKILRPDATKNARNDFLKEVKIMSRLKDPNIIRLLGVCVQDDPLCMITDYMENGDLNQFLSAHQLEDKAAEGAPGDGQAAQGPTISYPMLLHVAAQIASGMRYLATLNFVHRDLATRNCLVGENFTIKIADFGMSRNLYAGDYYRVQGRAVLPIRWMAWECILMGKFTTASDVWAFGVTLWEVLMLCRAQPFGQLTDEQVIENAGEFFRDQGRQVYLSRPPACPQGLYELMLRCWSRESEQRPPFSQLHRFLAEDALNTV

[10] = target: T3, Prostaglandin G/H synthase 2; experiment: Inhibition of human recombinant COX-2 pretreated with compound for 10 mins followed by substrate addition for 10 mins by fluorescent inhibitor screening assay

Structure (SMILES): C/C(=C\Cc1c(O)cc2c(c1O)CN(CCCC[C@@H](C(=O)O)N1Cc3c(cc(O)c(C/C=C(\C)CC/C=C(\C)C(=O)O)c3O)C1=O)C2=O)CC/C=C(\C)C(=O)O
- IC50 [1]: 39.2 µM

Structure (SMILES): CC(=O)O[C@@H]1c2c3c(cc(O)c2C(=O)O[C@@H]1C)O[C@@]1(C)[C@@H](O)C[C@H]2C(C)(C)[C@@H](O)C=C[C@]2(C)[C@@H]1C3
- IC50 [2]: 62.5 µM

Structure (SMILES): C=C(C)C1CCC2(C(=O)OCC)CC13Oc1cc(C/C=C(/CC/C=C(\C)CCC=C(C)C)C(=O)O)c(O)cc1-c1c(O)ccc(c13)O2 (racemic)
- IC50 (Staphylococcus aureus): 5.43 µM
- IC50 (K562): 6.68 µM

Structure (SMILES): COC/C(C=O)=C\CCC1=CC(c2cc(O)ccc2O)OC1=O (configuration not stated)
- IC50 (Acetylcholinesterase [3]): 8.52 µM

Structure (SMILES): C/C(=C/CC/C(C)=C/CC/C(=C/C(=O)c1cc(O)ccc1O)C(=O)O)CO
- IC50 [4]: 3.47 µM

Structure (SMILES): COC1(c2cc(O)ccc2O)C=C(CC[C@@H]2C(C)(C)[C@@H]3CC[C@]2(C)O3)C(=O)O1 (some centres not stated)
- IC50 [5]: 9.96 µM

Structure (SMILES): C[C@@H]1Cc2c3c(c(Cl)c(O)c2C(=O)O1)O[C@@]1(C)[C@@H](O)C[C@H]2C(C)(C)C(=O)C(Cl)(Cl)C[C@]2(C)[C@@H]1C3
- IC50 [2]: 71.6 µM

Structure (SMILES): CO[C@H]1OC(=O)[C@@]2(CC(=O)c3cc(O)ccc3O)C[C@@H]3[C@@H](CCC4=C[C@H](c5cc(O)ccc5O)OC4=O)C(C=O)=CO[C@@H]3[C@@]12C (racemic)
- IC50 [6]: < 10 µM

Structure (SMILES): O=C1C[C@]23CC[C@H](O)[C@]2(COC3=O)c2c(O)ccc(O)c21
- IC50 [5]: 25.5 µM

Structure (SMILES): CO[C@H]1OC(=O)[C@@]2(CC(=O)c3cc(O)ccc3O)C[C@@H]3[C@@H](CCC4=C[C@@H](c5cc(O)ccc5O)OC4=O)C(C=O)=CO[C@@H]3[C@@]12C (racemic)
- IC50 [6]: < 10 µM

Structure (SMILES): COC(=O)[C@H](CCCCN1Cc2c(cc(O)c(C/C=C(\C)CC/C=C(\C)C(=O)O)c2O)C1=O)N1Cc2c(cc(O)c(C/C=C(\C)CC/C=C(\C)C(=O)O)c2O)C1=O
- IC50 [1]: 36.2 µM

Structure (SMILES): CO[C@@H]1c2c3c(cc(O)c2C(=O)O[C@@H]1C)O[C@@]1(C)[C@@H](O)C[C@H]2C(C)(C)C(=O)C=C[C@]2(C)[C@@H]1C3
- IC50 [2]: 63.1 µM

Structure (SMILES): CC1(C)CCC[C@@]23C[C@@](CC(=O)c4cc(O)ccc4O)(CC[C@H]12)C(=O)O3
- IC50 (RAW264.7): 6.1 µM

Structure (SMILES): CC1(C)CCC[C@]23C[C@](CC(=O)c4cc(O)ccc4O)(CC[C@@H]12)C(=O)O3
- IC50 (RAW264.7): 5.9 µM

Structure (SMILES): C=C(C)C1CCC2(C(=O)OCC)CC13Oc1c(C/C=C(\CO)CC/C=C(\C)CCC=C(C)C)cc(O)cc1-c1c(O)ccc(c13)O2 (racemic)
- IC50 (K562): 7.68 µM

Structure (SMILES): CC(=O)O[C@@H]1C[C@@]2(C)Oc3cc(C)oc(=O)c3C[C@@H]2[C@@]2(C)C=CC(=O)C(C)(C)[C@H]12
- IC50 (Acetylcholinesterase [7]): 13.6 µM

Structure (SMILES): CC(=O)O[C@H]1C[C@@H](O)[C@@]2(C)[C@@H](CC[C@]3(C)[C@@H]2[C@@H](O)C[C@]2(C)Oc4oc(C)cc(=O)c4C[C@@H]32)C1(C)C
- IC50 (NCI-H187): 32.7 µM
- IC50 (KB): 32.7 µM

Structure (SMILES): CC(C)=CCC/C(C)=C/CCC1=C[C@]2(OC1=O)c1cc(O)ccc1OC(=O)[C@@]2(CC/C=C(\C)CCC=C(C)C)CC(=O)c1cc(O)ccc1O
- IC50 [8]: 2.5 µM

Structure (SMILES): C/C(=C\CC/C(C)=C/C/C=C(/CC(=O)c1cc(O)ccc1O)C(=O)O)CO
- IC50 [4]: 4.84 µM

Structure (SMILES): CO[C@@H]1OC(=O)[C@]2(CC(=O)c3cc(O)ccc3O)C[C@H]3[C@H](C/C=C(\CC(=O)c4cc(O)ccc4O)C(=O)O)C(C=O)=CO[C@H]3[C@]12C
- IC50 [9]: 6.9 µM

Structure (SMILES): C=C(C)C1CCC2(C(=O)OCC)CC13Oc1c(C/C=C(/CC/C=C(\C)CCC=C(C)C)C(=O)O)cc(O)cc1-c1c(O)ccc(c13)O2 (racemic)
- IC50 (Staphylococcus aureus): 5.43 µM

Structure (SMILES): CC(C)=CCCC1=C[C@]2(OC1=O)c1cc(O)ccc1OC(=O)[C@@]2(CC/C=C(\C)CCC=C(C)C)CC(=O)c1cc(O)ccc1O (racemic)
- IC50 [10]: 1.29 µM

Structure (SMILES): C/C(=C\CC/C(C)=C/CCCC1(O)Oc2ccc(O)cc2C1=O)CO (configuration not stated)
- IC50 [4]: 1.38 µM

Structure (SMILES): COc1ccc(-c2cc3c(c(=O)o2)C[C@]2(O)[C@@]4(C)CC[C@@H](O)C(C)(C)[C@]4(O)CC[C@@]2(C)O3)cc1
- IC50 (Acetylcholinesterase [7]): 0.64 µM

Structure (SMILES): CC(C)=CCC/C(C)=C/CCC1=C[C@@]2(OC1=O)c1cc(O)ccc1OC(=O)[C@]2(CC/C=C(\C)CCC=C(C)C)CC(=O)c1cc(O)ccc1O
- IC50 [8]: 4 µM

Structure (SMILES): CCOC1(c2cc(O)ccc2O)C=C(CC/C=C(\C)CCC=C(C)C)C(=O)O1 (configuration not stated)
- IC50 (Acetylcholinesterase [3]): 7.37 µM

Structure (SMILES): COC(=O)[C@H](Cc1ccccc1)N1Cc2c(cc(O)c(C/C=C(\C)CC/C=C(\C)C(=O)O)c2O)C1=O
- IC50 [1]: 40.8 µM

Structure (SMILES): CC(C)=CCC/C(C)=C/CCC1=C[C@]2(OC1=O)c1cc(O)ccc1OC(=O)[C@@]2(CCC=C(C)C)CC(=O)c1cc(O)ccc1O (racemic)
- IC50 [10]: 1.29 µM

Structure (SMILES): CC(C)=CCC/C(C)=C/CCC1=C[C@]2(OC1=O)c1cc(O)ccc1OC(=O)[C@@]2(CC/C=C(\C)CCC=C(C)C)CC(=O)c1cc(O)ccc1O (racemic)
- IC50 [8]: 27.3 µM

Structure (SMILES): C/C(=C/CC/C(C)=C/CC[C@]1(C(=O)O)CC(=O)c2cc(O)ccc2O1)C(=O)O
- IC50 [4]: 1.05 µM
